Reference: patent US20250332178A1, “METHODS OF TREATING MYCOBACTERIAL INFECTIONS USING TETRACYCLINE COMPOUNDS” (priority 2018, published 2025)
Like-named read-outs stand apart in the source and are kept apart here.

Legend:
[1] = tested on: M. mucogenium group; experiment: MIC (CLSI broth dilution), RGM isolates; type: cell-based
[2] = tested on: M. smegmatis group; experiment: MIC (CLSI broth dilution), RGM isolates; type: cell-based; details: Mycolicibacterium smegmatis
[3] = tested on: Bacille Calmette Guerin (BCG); type: cell-based, Mycobacterium bovis; details: disk: 15 μg of clarithromycin
[4] = tested on: rapid-growing mycobacteria (RGM) isolates; experiment: MIC (CLSI broth dilution), all RGM isolates; type: cell-based, nontuberculous mycobacteria
[5] = tested on: M. abscessus complex; experiment: MIC (CLSI broth dilution), RGM isolates; type: cell-based; details: Mycobacteroides abscessus

CC[C@H]1OC(=O)[C@H](C)[C@@H](O[C@H]2C[C@@](C)(OC)[C@@H](O)[C@H](C)O2)[C@H](C)[C@@H](O[C@@H]2O[C@H](C)C[C@H](N(C)C)[C@H]2O)[C@](C)(OC)C[C@@H](C)C(=O)[C@H](C)[C@@H](O)[C@]1(C)O [clarithromycin]
16 µg/mL: MIC ([2]; isolate 49, M. goodii, initial reading, generally 3-4 days, read-out: MIC, CLA Initial)
2 µg/mL: MIC50 ([4]; 336 h, all RGM isolates, extended reading, up to/including 14 days, read-out: MIC50, CLA Extended) | MIC90 ([4]; all 50 RGM isolates, initial reading, generally 3-4 days, read-out: MIC90, CLA Initial) | MIC ([5]; 336 h, isolate 2, MAB30, extended reading, up to/including 14 days, read-out: MIC, CLA Extended) | MIC ([5]; 336 h, isolate 3, MAB30, extended reading, up to/including 14 days, read-out: MIC, CLA Extended) | MIC ([5]; 336 h, isolate 4, massiliense, extended reading, up to/including 14 days, read-out: MIC, CLA Extended)
0.12 µg/mL: MIC ([1]; 336 h, isolate 39, M. mucogenicum, extended reading, up to/including 14 days, read-out: MIC, CLA Extended) | MIC ([1]; 336 h, isolate 42, M. mucogenicum, extended reading, up to/including 14 days, read-out: MIC, CLA Extended) | MIC ([1]; 336 h, isolate 46, M. phocaicum, extended reading, up to/including 14 days, read-out: MIC, CLA Extended) | MIC ([1]; isolate 48, M. phocaicum, initial reading, generally 3-4 days, read-out: MIC, CLA Initial) | MIC ([5]; isolate 4, massiliense, initial reading, generally 3-4 days, read-out: MIC, CLA Initial) | MIC ([5]; isolate 7, Type 1 abscessus, initial reading, generally 3-4 days, read-out: MIC, CLA Initial)
> 32 µg/mL: MIC ([2]; 144 h, isolate 49, M. goodii, extended reading (6 d), read-out: MIC, CLA Extended) | MIC ([2]; isolate 50, M. wolinskyi, initial reading, generally 3-4 days, read-out: MIC, CLA Initial) | MIC90 ([4]; 336 h, all RGM isolates, extended reading, up to/including 14 days, read-out: MIC90, CLA Extended) | MIC ([5]; 168 h, isolate 12, Type 6 abscessus, extended reading (7 d), read-out: MIC, CLA Extended) | MIC ([5]; 240 h, isolate 7, Type 1 abscessus, extended reading (10 d), read-out: MIC, CLA Extended) | MIC ([5]; 240 h, isolate 9, Type 1 abscessus, extended reading (10 d), read-out: MIC, CLA Extended) | MIC ([5]; 240 h, isolate 11, Type 6 abscessus, extended reading (10 d), read-out: MIC, CLA Extended) | MIC ([5]; 240 h, isolate 15, Type 7 abscessus, extended reading (10 d), read-out: MIC, CLA Extended) | MIC ([5]; 240 h, isolate 16, Type 7 abscessus, extended reading (10 d), read-out: MIC, CLA Extended) | MIC ([5]; 240 h, isolate 17, Type 8 abscessus, extended reading (10 d), read-out: MIC, CLA Extended) | MIC ([5]; 264 h, isolate 8, Type 1 abscessus, extended reading (11 d), read-out: MIC, CLA Extended) | MIC ([5]; 264 h, isolate 13, Type 6 abscessus, extended reading (11 d), read-out: MIC, CLA Extended) | MIC ([5]; 336 h, isolate 14, Type 6 abscessus, extended reading (14 d), read-out: MIC, CLA Extended)
0.25 µg/mL: MIC ([1]; isolate 40, M. mucogenicum, initial reading, generally 3-4 days, read-out: MIC, CLA Initial) | MIC ([1]; isolate 43, M. phocaicum, initial reading, generally 3-4 days, read-out: MIC, CLA Initial) | MIC ([1]; isolate 44, M. phocaicum, initial reading, generally 3-4 days, read-out: MIC, CLA Initial) | MIC ([1]; isolate 45, M. phocaicum, initial reading, generally 3-4 days, read-out: MIC, CLA Initial) | MIC ([1]; isolate 47, M. phocaicum, initial reading, generally 3-4 days, read-out: MIC, CLA Initial) | MIC50 ([4]; all 50 RGM isolates, initial reading, generally 3-4 days, read-out: MIC50, CLA Initial) | MIC ([5]; isolate 6, Type 1 abscessus, initial reading, generally 3-4 days, read-out: MIC, CLA Initial)
45 mm clear zone: clear zone [3]
1 µg/mL: MIC ([1]; 336 h, isolate 40, M. mucogenicum, extended reading, up to/including 14 days, read-out: MIC, CLA Extended) | MIC ([1]; 336 h, isolate 41, M. mucogenicum, extended reading, up to/including 14 days, read-out: MIC, CLA Extended) | MIC ([1]; 336 h, isolate 43, M. phocaicum, extended reading, up to/including 14 days, read-out: MIC, CLA Extended) | MIC ([1]; 336 h, isolate 44, M. phocaicum, extended reading, up to/including 14 days, read-out: MIC, CLA Extended) | MIC ([1]; 336 h, isolate 45, M. phocaicum, extended reading, up to/including 14 days, read-out: MIC, CLA Extended) | MIC ([5]; 336 h, isolate 1, MAB30, extended reading, up to/including 14 days, read-out: MIC, CLA Extended)
0.5 µg/mL: MIC ([1]; 336 h, isolate 47, M. phocaicum, extended reading, up to/including 14 days, read-out: MIC, CLA Extended) | MIC ([1]; 336 h, isolate 48, M. phocaicum, extended reading, up to/including 14 days, read-out: MIC, CLA Extended) | MIC ([1]; isolate 41, M. mucogenicum, initial reading, generally 3-4 days, read-out: MIC, CLA Initial) | MIC ([5]; isolate 3, MAB30, initial reading, generally 3-4 days, read-out: MIC, CLA Initial)
32 µg/mL: MIC ([5]; 264 h, isolate 10, Type 1 abscessus, extended reading (11 d), read-out: MIC, CLA Extended)
≤ 0.06 µg/mL: MIC ([1]; isolate 39, M. mucogenicum, initial reading, generally 3-4 days, read-out: MIC, CLA Initial) | MIC ([1]; isolate 42, M. mucogenicum, initial reading, generally 3-4 days, read-out: MIC, CLA Initial) | MIC ([1]; isolate 46, M. phocaicum, initial reading, generally 3-4 days, read-out: MIC, CLA Initial) | MIC ([5]; 336 h, isolate 5, massiliense/subsp. abs hybrid, extended reading, up to/including 14 days, read-out: MIC, CLA Extended) | MIC ([5]; isolate 1, MAB30, initial reading, generally 3-4 days, read-out: MIC, CLA Initial) | MIC ([5]; isolate 2, MAB30, initial reading, generally 3-4 days, read-out: MIC, CLA Initial) | MIC ([5]; isolate 5, massiliense/subsp. abs hybrid, initial reading, generally 3-4 days, read-out: MIC, CLA Initial)
